Source: US9821072B2, “Activated neurotensin molecules and the uses thereof” (priority 2014, dated 2017)

Key:
Type in all cases: in vivo, mouse
[1] = system: FVB/N mice with KA-induced status epilepticus; assay: Kainic acid-induced status epilepticus model (body temperature, seizures, neurodegeneration, neuroinflammation, mossy fiber sprouting)
Text: In the present case, excitotoxicity was induced by subcutaneous (s.c.) injection of kainic acid (KA), a pro-convulsant agent known to induce a status epilepticus (SE) with excitotoxicity, neuroinflammation, and severe neuronal damage in the hippocampus that can be observed 3 to 7 days after KA administration, and with aberrant axonal sprouting of the dentate gyrus mossy fibers that can be observed at 7-8 weeks after KA administration. We tested the effect of compound XIV on i) epileptic activity (persistence of recurrent seizures), ii) neurodegeneration, neuroinflammation and the resulting brain tissue damage and iii) aberrant axonal sprouting of the dentate gyrus mossy fibers.
FVB/N adult male mice were injected with a single dose of KA (40-45 mg/kg s.c.) to generate mice with spontaneous recurrent seizures as a hallmark of SE. A negative control group of mice were administered saline 0.9% instead of KA and no further treatment (“SHAM”, n=5). Thirty minutes after the onset of SE, mice received either an intravenous (tail vein) bolus injection of compound XIV at the dose of 4 mg/kg eq. NT (treatment group “SE+HT”, n=5) or saline 0.9% (group “SE”, n=5), or a high dose of diazepam (DZP) at 15 mg/kg), a potent anti-convulsive and anti-epileptic drug (positive control group “SE+DZP”). Body temperature was monitored before KA injection and then every 15 min during 6 hours thereafter, using a rectal probe. During this period, mice were assessed for the occurrence and severity of motor seizures. One week later, animals were sacrificed for histological assessment of neuronal cell death on coronal sections, the hippocampal formation being the main structure in the brain showing tissue damage in this model of excitotoxicity. Another group of animals with the same treatments was sacrificed 8 weeks for histological assessment of aberrant axonal sprouting of the dentate gyrus mossy fibers.
Administration of KA (40-45 mg/kg; s.c.) caused characteristic sequential behavioral changes. Immediately after being injected, all animals developed immobility (stage 1). Within 30 minutes after KA injection, automatisms with head nodding, forelimb clonus and circling behavior (stages 2-3) were observed. Then most animals progressed to intermittent (stage 4) followed by continuous (stage 5) rearing with forelimb clonus and falling behavior. […] Only animals attaining at least Racine stage 5 seizures were included in the study. The SE occurred around 2 hours after KA injection, was characterized by stage 5-6 seizures and often associated with hyperthermia (FIG. 13A). Compound XIV administered 30 min after SE onset (SE30) invariably led to transient hypothermia (FIG. 13A), which persisted at least 2 hrs. Mean decreases in body temperature (BT) of −2.5° C. and −3.6° C. were respectively recorded for SE30+ compound XIV animals as compared to SE animals (F=52.34; ***P<0.001). […] SE30+ compound XIV animals presented an average of stage 2 seizures or fewer during the rest of experiment. A subset of animals was administered i.p. a high dose of diazepam (DZP). […] Thus, administration of compound XIV at the dose of 4 mg/kg eq. […] This effect correlated with a −3 to −6° C. decrease in body temperature during ˜2.5 hours.
Using the anti-NeuN antibody and Fluoro-jade C that respectively label a neuronspecific nuclear protein and neuronal death, we observed a broad loss of CA1 and CA3 pyramidal cells as well as some dentate hilar neurons in the hippocampus of control SE animals (FIG. 14A, panel B), as compared to SHAM animals (FIG. 14A, panel A).
SE-induced gliosis involved microglia and astroglial cell types. We used GFAP and Iba1 immunolabeling to estimate the effect of compound XIV on neuroinflammation. In SHAM animals, a basal labeling for GFAP and Iba1 was detected in the HF (FIG. 14A, panel D). In SE animals, a very strong activation of glial cells occurred in all hippocampal layers (FIG. 14, panels E, H). […]

mice = assay: Writhing test (acetic acid, acute visceral pain) in mice; details: 30 min before acetic acid i.p.
Procedure: In order to evaluate the antinociceptive potential of activated NT drugs, compound XIV was tested in an experimental pain model in mice. The writhing test was used as a model of acute visceral pain to assess the effect of compound XIV after intravenous administration. Given that the time to maximal decrease in body temperature in mice receiving compound XIV was around 45 min post-injection, we assumed similar pharmacodynamic kinetics in this pain model. Mice first received intravenous (bolus) injection of compound XIV at increasing dose levels, followed 30 min thereafter by intraperitoneal injection of acetic acid 0.7% (10 mL/kg). In control mice, intraperitoneal injection of acetic acid produces characteristic and quantifiable abdominal stretches (elongation of the body and extension of forelimbs) as early as 2-3 minutes following injection and reaching a peak between 5 and 15 min following injection. This time window was therefore used to evaluate the number of abdominal stretches (writhes counted over 10 min observation) in mice administered with either saline or compound XIV at 0.5, 1 or 5 mg/kg eq. NT.

Swiss (CD-1) mice = assay: Hypothermic response (rectal body temperature) after i.v. bolus in Swiss (CD-1) mice
[2] = administered 30 min after SE onset

CCC(=O)N[C@@H]1CSSC[C@@H](C(=O)NCCOCCOCCOCCOCCOCCOCCC(=O)N[C@@H](CCCNC(=N)N)C(=O)N[C@@H](CCCNC(=N)N)C(=O)N2CCC[C@H]2C(=O)N[C@@H](Cc2ccc(O)cc2)C(=O)N[C@H](C(=O)N[C@@H](CC(C)C)C(=O)O)[C@@H](C)CC)NC(=O)CN(C)C(=O)[C@H](CCCNC(=N)N)NC(=O)[C@H](CC(C)C)NC(=O)[C@H](CCCNC(=N)N)NC(=O)[C@@H]2CCCCN2C(=O)[C@H](CCSC)NC1=O [Compound XIV, Pr-cMPipRLRSarC-PEG6-RRPYIL-OH] was tested, and the “decrease in body temperature” value ([1]; 4 mg/kg eq. NT i.v., during ~2.5 hours) was −3 to −6 °C, the “mean decrease in body temperature compared to SE animals (second value)” value ([1]; 30 min after SE onset, second of two values, presumably 4 mg/kg eq. NT) was −3.6 °C and the “glial inflammatory response in the hippocampus (GFAP, Iba1) compared with SE animals” value [1, 2] was “significantly decreased”. The “persistence of transient hypothermia” value [1, 2] was “at least 2 hrs”, the “seizure intensity compared with SE group” value [1, 2] was “significant decrease of seizures” and the “seizure stage (Racine) during the rest of the experiment” value [1, 2] was no more than 2 stage. For the same compound, the “number of mossy fiber terminals innervating the IML (ZnT3) compared with SE animals” value ([1]; administered 30 min after SE onset, 8 weeks after SE) was “considerably reduced”, the “neurodegeneration in the hippocampus (NeuN, Fluoro-jade C) compared with SE animals” value ([1]; administered 30 min after SE onset, one week later) was “significantly decreased” and the “antinociceptive effect on writhe count” value (mice; 0.5 mg/kg eq. NT i.v.) was “no effect”. For the same compound, the “reduction of the writhe count” value (mice; 1 mg/kg eq. NT i.v.) was 50%, the “reduction of the writhe count” value (mice; 5 mg/kg eq. NT i.v.) was 64% and the “Maximal decrease in body temperature” value (Swiss (CD-1) mice; 10 mg/kg eq. NT i.v. bolus, 60 min post-injection) was −6.7 °C. For the same compound, the “hypothermic response at 20 mg/kg eq. NT versus 10 mg/kg eq. NT” value (Swiss (CD-1) mice; 20 mg/kg eq. NT, mice) was “No further decrease in body temperature”, the “Minimal Effective Dose (MED), hypothermic effect” value (Swiss (CD-1) mice; i.v. bolus) was “about 0.1 mg/kg eq. NT” and the “ED50, hypothermic effect” value (Swiss (CD-1) mice; i.v. bolus, dose-response) was 1.53 mg/kg eq. NT.
